The kinase profiling compilation of Christmann-Franck et al. (2016)

Key:
Assay in all cases: radiometric filter-binding kinase assay, Kinaseprofiler
ACVR1B (human) = ACVR1B (human) (UniProt P36896); details: compound 10.0 µM; ATP 10 µM
[1] = test system: BLK (human), P51451 [M278V]; details: compound 10.0 µM; ATP 45 µM
BRSK1 (human) = BRSK1 (human) (UniProt Q8TDC3); details: ATP 200 µM
CAMK1D (human) = CAMK1D (human) (UniProt Q8IU85); details: compound 10.0 µM; ATP 15 µM
CAMK2B (human) = CAMK2B (human) (UniProt Q13554); details: ATP 15 µM
Sequence of CAMK2B (human) (Q13554 whole entry, looked up): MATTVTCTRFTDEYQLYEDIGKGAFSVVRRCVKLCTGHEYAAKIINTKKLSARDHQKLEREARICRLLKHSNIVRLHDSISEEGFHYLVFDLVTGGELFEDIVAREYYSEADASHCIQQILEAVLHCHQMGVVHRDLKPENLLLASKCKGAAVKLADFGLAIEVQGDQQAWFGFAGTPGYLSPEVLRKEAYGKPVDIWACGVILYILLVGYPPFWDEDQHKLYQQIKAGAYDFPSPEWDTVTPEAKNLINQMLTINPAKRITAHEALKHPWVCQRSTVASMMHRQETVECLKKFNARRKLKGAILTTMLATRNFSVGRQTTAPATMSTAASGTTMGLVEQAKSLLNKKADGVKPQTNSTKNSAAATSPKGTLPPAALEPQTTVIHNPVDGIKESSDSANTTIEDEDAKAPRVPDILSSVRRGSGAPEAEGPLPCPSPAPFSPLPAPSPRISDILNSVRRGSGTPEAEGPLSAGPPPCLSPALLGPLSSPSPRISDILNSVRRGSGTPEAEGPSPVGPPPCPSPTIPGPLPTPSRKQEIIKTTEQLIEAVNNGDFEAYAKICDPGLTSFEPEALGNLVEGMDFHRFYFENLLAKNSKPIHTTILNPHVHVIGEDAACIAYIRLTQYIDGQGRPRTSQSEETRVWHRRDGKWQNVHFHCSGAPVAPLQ

CAMK2D (human) = CAMK2D (human) (UniProt Q13557); details: compound 1.0 µM; ATP 10 µM
CDK1 CCNB1 (human) = CDK1 CCNB1 (human) (UniProt P06493+P14635); details: compound 10.0 µM; ATP 45 µM
CDK2 CCNA2 (human) = CDK2 CCNA2 (human) (UniProt P24941+P20248); details: ATP 45 µM
Sequence of CDK2 CCNA2 (human) (P20248 whole entry, looked up, other chains not shown): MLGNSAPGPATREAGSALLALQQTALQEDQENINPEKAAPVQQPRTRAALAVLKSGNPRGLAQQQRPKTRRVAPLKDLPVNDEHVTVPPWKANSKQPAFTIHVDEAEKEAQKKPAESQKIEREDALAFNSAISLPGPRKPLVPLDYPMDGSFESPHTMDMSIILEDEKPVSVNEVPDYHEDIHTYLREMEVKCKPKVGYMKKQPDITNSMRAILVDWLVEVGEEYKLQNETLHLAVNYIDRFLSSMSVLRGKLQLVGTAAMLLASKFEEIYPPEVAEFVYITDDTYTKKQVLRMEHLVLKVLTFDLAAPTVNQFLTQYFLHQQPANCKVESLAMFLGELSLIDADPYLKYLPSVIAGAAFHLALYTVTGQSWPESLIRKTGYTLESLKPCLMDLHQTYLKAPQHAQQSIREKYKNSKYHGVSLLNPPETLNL

DAPK2 (human) = DAPK2 (human) (UniProt Q9UIK4); details: compound 10.0 µM; ATP 10 µM
FER (human) = FER (human) (UniProt P16591); details: compound 10.0 µM; ATP 70 µM
FLT1 (human) = FLT1 (human) (UniProt P17948); details: ATP 200 µM
Sequence of FLT1 (human) (P17948 whole entry, looked up): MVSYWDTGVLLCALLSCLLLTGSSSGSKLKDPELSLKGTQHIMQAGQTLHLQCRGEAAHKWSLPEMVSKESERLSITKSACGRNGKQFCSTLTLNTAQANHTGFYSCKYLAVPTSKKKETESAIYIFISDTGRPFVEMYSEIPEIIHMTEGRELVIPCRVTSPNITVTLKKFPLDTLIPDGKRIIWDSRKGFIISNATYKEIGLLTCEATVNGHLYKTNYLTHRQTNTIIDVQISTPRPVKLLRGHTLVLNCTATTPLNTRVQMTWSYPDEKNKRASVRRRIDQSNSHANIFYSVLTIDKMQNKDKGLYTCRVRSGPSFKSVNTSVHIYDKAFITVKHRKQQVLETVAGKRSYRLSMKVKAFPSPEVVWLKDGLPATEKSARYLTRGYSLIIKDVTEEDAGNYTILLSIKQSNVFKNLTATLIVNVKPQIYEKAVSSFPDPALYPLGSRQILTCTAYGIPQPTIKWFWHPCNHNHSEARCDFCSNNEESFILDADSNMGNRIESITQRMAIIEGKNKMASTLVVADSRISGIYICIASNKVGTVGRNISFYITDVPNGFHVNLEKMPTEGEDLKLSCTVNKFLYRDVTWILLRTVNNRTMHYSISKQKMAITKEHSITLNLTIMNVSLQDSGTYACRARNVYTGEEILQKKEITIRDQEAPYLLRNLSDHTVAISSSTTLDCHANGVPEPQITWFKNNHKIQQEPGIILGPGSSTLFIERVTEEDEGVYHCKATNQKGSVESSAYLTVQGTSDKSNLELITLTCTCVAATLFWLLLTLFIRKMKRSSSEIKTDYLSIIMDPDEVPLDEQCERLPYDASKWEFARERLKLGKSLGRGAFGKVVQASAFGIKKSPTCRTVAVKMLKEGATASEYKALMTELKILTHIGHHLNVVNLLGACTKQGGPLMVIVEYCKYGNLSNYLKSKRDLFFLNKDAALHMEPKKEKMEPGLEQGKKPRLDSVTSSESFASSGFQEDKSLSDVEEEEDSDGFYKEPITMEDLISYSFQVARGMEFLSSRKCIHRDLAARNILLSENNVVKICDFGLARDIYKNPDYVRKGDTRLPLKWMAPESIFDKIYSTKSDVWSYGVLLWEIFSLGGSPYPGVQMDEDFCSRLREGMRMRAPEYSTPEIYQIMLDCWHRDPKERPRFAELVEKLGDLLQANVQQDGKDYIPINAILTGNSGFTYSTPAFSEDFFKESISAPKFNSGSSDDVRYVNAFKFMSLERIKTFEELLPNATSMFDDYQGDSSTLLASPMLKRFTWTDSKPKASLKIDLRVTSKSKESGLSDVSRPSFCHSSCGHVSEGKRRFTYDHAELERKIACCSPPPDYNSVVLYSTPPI

FLT3 (human) = FLT3 (human) (UniProt P36888); details: compound 1.0 µM; ATP 200 µM
[2] = test system: FLT4 (human), P35916 [V1128L/H1146R]; details: compound 1.0 µM; ATP 200 µM
FYN (human) = FYN (human) (UniProt P06241); details: compound 10.0 µM; ATP 70 µM
INSR (human) = INSR (human) (UniProt P06213); details: compound 10.0 µM; ATP 45 µM
IRAK1 (human) = IRAK1 (human) (UniProt P51617); details: compound 10.0 µM; ATP 45 µM
KDR (human) = KDR (human) (UniProt P35968); details: compound 10.0 µM; ATP 90 µM
MAP2K7 (human) = MAP2K7 (human) (UniProt O14733); details: compound 10.0 µM; ATP 10 µM
MAP3K5 (human) = MAP3K5 (human) (UniProt Q99683); details: ATP 200 µM
MAPK1 (human) = MAPK1 (human) (UniProt P28482); details: compound 10.0 µM; ATP 155 µM
MAPK10 (human) = MAPK10 (human) (UniProt P53779); details: ATP 10 µM
Sequence of MAPK10 (human) (P53779 whole entry, looked up): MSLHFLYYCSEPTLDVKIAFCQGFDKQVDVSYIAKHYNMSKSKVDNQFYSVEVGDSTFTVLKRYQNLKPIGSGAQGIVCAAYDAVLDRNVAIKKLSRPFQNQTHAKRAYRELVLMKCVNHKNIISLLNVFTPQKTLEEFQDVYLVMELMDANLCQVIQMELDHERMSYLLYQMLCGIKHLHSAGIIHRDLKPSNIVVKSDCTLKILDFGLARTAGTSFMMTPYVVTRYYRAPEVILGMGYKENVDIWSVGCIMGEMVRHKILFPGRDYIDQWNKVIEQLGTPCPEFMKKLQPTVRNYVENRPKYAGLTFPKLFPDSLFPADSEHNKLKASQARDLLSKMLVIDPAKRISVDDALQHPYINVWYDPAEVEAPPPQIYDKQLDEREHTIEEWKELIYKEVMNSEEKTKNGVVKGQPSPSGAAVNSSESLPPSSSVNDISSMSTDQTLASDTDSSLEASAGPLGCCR

MAPK3 (human) = MAPK3 (human) (UniProt P27361); details: compound 10.0 µM; ATP 70 µM
MARK2 (human) = MARK2 (human) (UniProt Q7KZI7); details: compound 10.0 µM; ATP 15 µM
MKNK2 (human) = MKNK2 (human) (UniProt Q9HBH9); details: ATP 120 µM
Sequence of MKNK2 (human) (Q9HBH9 whole entry, looked up): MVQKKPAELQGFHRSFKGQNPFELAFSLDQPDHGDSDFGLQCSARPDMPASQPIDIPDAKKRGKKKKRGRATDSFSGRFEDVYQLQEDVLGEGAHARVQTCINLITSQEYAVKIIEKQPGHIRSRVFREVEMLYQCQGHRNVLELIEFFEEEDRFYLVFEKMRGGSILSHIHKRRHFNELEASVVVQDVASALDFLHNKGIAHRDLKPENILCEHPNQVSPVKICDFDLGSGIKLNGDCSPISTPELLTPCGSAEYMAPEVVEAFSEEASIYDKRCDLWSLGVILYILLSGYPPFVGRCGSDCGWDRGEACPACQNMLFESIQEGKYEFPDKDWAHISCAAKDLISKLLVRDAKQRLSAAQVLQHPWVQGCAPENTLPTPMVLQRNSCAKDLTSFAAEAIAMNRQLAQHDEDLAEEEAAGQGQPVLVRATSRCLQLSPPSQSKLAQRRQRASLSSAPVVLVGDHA

MTOR FKBP1A (human) = MTOR FKBP1A (human) (UniProt P42345+P62942); details: ATP 45 µM
Sequence of MTOR FKBP1A (human) (P62942 whole entry, looked up, other chains not shown): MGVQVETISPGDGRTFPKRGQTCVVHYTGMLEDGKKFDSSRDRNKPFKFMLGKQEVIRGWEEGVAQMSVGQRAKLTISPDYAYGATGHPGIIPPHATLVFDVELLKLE

NTRK2 (human) = NTRK2 (human) (UniProt Q16620); details: ATP 90 µM
PAK4 (human) = PAK4 (human) (UniProt O96013); details: compound 10.0 µM; ATP 10 µM
PDPK1 (human) = PDPK1 (human) (UniProt O15530); details: ATP 10 µM
Sequence of PDPK1 (human) (O15530 whole entry, looked up): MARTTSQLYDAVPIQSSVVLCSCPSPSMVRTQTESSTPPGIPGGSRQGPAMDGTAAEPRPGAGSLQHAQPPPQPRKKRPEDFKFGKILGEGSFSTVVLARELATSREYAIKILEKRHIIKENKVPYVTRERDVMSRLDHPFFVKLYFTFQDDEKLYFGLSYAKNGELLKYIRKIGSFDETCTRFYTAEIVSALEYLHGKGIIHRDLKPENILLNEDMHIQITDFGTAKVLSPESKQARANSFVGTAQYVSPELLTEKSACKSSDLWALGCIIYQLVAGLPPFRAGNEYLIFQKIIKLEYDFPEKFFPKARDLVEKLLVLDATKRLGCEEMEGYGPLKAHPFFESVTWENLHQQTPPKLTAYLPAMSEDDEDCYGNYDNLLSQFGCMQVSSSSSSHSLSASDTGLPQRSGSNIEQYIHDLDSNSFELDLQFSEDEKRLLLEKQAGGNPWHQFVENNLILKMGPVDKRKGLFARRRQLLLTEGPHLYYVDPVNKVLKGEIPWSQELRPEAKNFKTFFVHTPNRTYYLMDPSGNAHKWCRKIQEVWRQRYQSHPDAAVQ

[3] = biological target: PRKAA1 PRKAB1 PRKAG1 (human) (UniProt P54619+Q13131+Q9Y478); details: ATP 45 µM
PRKD2 (human) = PRKD2 (human) (UniProt Q9BZL6); details: compound 10.0 µM; ATP 155 µM
RPS6KA5 KD1 KD2 (human) = RPS6KA5 KD1 KD2 (human) (UniProt O75582); details: compound 10.0 µM; ATP 90 µM
RPS6KA6 KD1 KD2 (human) = RPS6KA6 KD1 KD2 (human) (UniProt Q9UK32); details: compound 1.0 µM; ATP 45 µM
SIK1 (human) = SIK1 (human) (UniProt P57059); details: ATP 45 µM
Sequence of SIK1 (human) (P57059 whole entry, looked up): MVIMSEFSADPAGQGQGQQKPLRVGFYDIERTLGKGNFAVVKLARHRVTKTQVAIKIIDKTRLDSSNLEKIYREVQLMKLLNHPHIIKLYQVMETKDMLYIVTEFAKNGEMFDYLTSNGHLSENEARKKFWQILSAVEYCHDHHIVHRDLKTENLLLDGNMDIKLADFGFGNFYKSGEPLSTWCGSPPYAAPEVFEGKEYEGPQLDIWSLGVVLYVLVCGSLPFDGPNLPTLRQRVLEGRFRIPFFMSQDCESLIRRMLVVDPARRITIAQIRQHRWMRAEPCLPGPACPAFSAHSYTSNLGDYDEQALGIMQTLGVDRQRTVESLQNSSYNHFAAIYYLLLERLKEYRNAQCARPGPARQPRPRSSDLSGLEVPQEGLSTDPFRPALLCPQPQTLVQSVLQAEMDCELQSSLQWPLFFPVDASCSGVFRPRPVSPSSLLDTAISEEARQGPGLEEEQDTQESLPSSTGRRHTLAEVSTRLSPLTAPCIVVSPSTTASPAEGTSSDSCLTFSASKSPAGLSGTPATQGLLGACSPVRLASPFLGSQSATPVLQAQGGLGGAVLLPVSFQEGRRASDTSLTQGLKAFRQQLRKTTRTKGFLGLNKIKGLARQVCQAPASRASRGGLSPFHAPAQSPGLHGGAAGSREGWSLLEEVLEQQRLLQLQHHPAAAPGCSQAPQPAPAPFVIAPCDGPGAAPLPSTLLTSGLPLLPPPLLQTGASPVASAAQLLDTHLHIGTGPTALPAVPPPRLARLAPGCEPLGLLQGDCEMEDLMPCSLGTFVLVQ

STK17A (human) = STK17A (human) (UniProt Q9UEE5); details: compound 1.0 µM; ATP 10 µM
STK33 (human) = STK33 (human) (UniProt Q9BYT3); details: compound 10.0 µM; ATP 155 µM
TSSK2 (human) = TSSK2 (human) (UniProt Q96PF2); details: compound 10.0 µM; ATP 15 µM

Q: Which results are given for `COC(=O)[C@]1(O)C[C@@H]2O[C@@]1(C)n1c3ccccc3c3c4c(c5c6ccccc6n2c5c31)C(=O)NC4`?
A: residual activity (ACVR1B (human)): 0%; residual activity [1]: 0%; residual activity (BRSK1 (human); compound 1.0 µM): -1%; residual activity (BRSK1 (human); compound 10.0 µM): 0%; residual activity (CAMK1D (human)): 0%; residual activity (CAMK2B (human); compound 1.0 µM): 0%; residual activity (CAMK2B (human); compound 10.0 µM): -1%; residual activity (CAMK2D (human)): 0%; residual activity (CDK1 CCNB1 (human)): -1%; residual activity (CDK2 CCNA2 (human); compound 1.0 µM): 1%; residual activity (CDK2 CCNA2 (human); compound 10.0 µM): 0%; residual activity (DAPK2 (human)): -3%; residual activity (FER (human)): 0%; residual activity (FLT1 (human); compound 1.0 µM): 0%; residual activity (FLT1 (human); compound 10.0 µM): 0%; residual activity (FLT3 (human)): 0%; residual activity [2]: 0%; residual activity (FYN (human)): 0%; residual activity (INSR (human)): 0%; residual activity (IRAK1 (human)): 0%; residual activity (KDR (human)): 0%; residual activity (MAP2K7 (human)): 0%; residual activity (MAP3K5 (human); compound 1.0 µM): 0%; residual activity (MAP3K5 (human); compound 10.0 µM): 0%; residual activity (MAPK1 (human)): -3%; residual activity (MAPK10 (human); compound 1.0 µM): -3%; residual activity (MAPK10 (human); compound 10.0 µM): -1%; residual activity (MAPK3 (human)): -1%; residual activity (MARK2 (human)): -2%; residual activity (MKNK2 (human); compound 1.0 µM): 0%; residual activity (MKNK2 (human); compound 10.0 µM): 0%; residual activity (MTOR FKBP1A (human); compound 1.0 µM): 89%; residual activity (MTOR FKBP1A (human); compound 10.0 µM): 79%; residual activity (NTRK2 (human); compound 1.0 µM): 0%; residual activity (NTRK2 (human); compound 10.0 µM): 0%; residual activity (PAK4 (human)): 0%; residual activity (PDPK1 (human); compound 1.0 µM): -1%; residual activity (PDPK1 (human); compound 10.0 µM): 0%; residual activity ([3]; compound 1.0 µM): -1%; residual activity ([3]; compound 10.0 µM): 0%; residual activity (PRKD2 (human)): 0%; residual activity (RPS6KA5 KD1 KD2 (human)): 0%; residual activity (RPS6KA6 KD1 KD2 (human)): -2%; residual activity (SIK1 (human); compound 1.0 µM): 0%; residual activity (SIK1 (human); compound 10.0 µM): 0%; residual activity (STK17A (human)): 0%; residual activity (STK33 (human)): 0%; residual activity (TSSK2 (human)): 0%
